Assay results: patent US20220018849A1, “SERINE HYDROLASE PROFILING ASSAY IN BIOTHERAPEUTICS” (Merck Sharp & Dohme Corp., priority 2020, published 2022)

Legend:
[1] = PS-80 degradation in protein formulations containing PLBL2 (unpublished results); assay type: physicochemical; settings: protein formulations containing over 500 ppm of PLBL2
serine hydrolases = assay: Activity-based chemical proteomics approach (fluorophosphonate probe enrichment, LC-MS/MS); settings: HCCF, compared to other lipases
[2] = reference 6; cited from earlier work

Row | Substance | PS-80 degradation [1] | enrichment of the enzyme by the chemical probes (serine hydrolases; listed as CHO PLBL2) | enrichment of the enzyme by the chemical probes (serine hydrolases; listed as Plbl2) | concentration at which PS-80 and PS-20 are degraded (as low as) [2] | concentration with significant impact on PS-80 degradation [2]
1 | phospholipase B domain containing 2 [Plbd2] | without any PS-80 degradation | not enriched | limited enrichment | – | –
2 | phospholipase A2, group XV [Pla2g15] | – | – | – | 0.3 ppm | below 1 ppm
